Values quoted from earlier work as cited in patent US7064109B2, “Pharmaceutical composition based on macrolides for topical application in ophthalmology” (priority 2001, dated 2006).

Tested on: all sensitive microorganisms

In the case of CC[C@H]1OC(=O)[C@H](C)[C@@H](O[C@H]2C[C@@](C)(OC)[C@@H](O)[C@H](C)O2)[C@H](C)[C@@H](O[C@@H]2O[C@H](C)C[C@H](N(C)C)[C@H]2O)[C@](C)(O)C[C@@H](C)CN(C)[C@H](C)[C@@H](O)[C@]1(C)O [azithromycin, N-methyl-11-aza-10-deoxo-10-dihydroerythromycin], the “minimum level for eliminating microorganisms” value (conjunctival level) is listed as 0.25 µg/g and the minimum inhibitory concentration (minimum concentration for therapeutic effectiveness in the eyes, all sensitive microorganisms) is listed as 0.5 µg/g.
